Species on record: Rattus norvegicus
Test: DrugMatrix - Regimen: Daily Repeat
Type: toxicity, organism-based, Sprague-Dawley
Design: regimen Daily Repeat, gender Male, age 6-8 weeks
Conditions: in vivo; for ABSOLUTE BASOPHIL / ABSOLUTE EOSINOPHIL / ABSOLUTE LYMPHOCYTE / ABSOLUTE MONOCYTE / ABSOLUTE SEGMENTED NEUTROPHIL / BASOPHIL / EOSINOPHIL / ERYTHROCYTE COUNT / HEMATOCRIT / HEMOGLOBIN / LEUKOCYTE COUNT / LYMPHOCYTE / MEAN CORPUSCULAR HEMOGLOBIN / MEAN CORPUSCULAR HEMOGLOBIN CONCENTRATION / MEAN CORPUSCULAR VOLUME / MONOCYTE / NEUTROPHIL / NUCLEATED RED BLOOD CELLS / PLATELET COUNT: tissue Blood; for ALANINE AMINOTRANSFERASE / ALBUMIN / ALKALINE PHOSPHATASE / ASPARTATE AMINOTRANSFERASE / BLOOD UREA NITROGEN / CARBON DIOXIDE / CHLORIDE / CHOLESTEROL / CREATINE PHOSPHOKINASE / CREATININE / GLUCOSE / LACTATE DEHYDROGENASE / LIPASE / PHOSPHORUS / POTASSIUM / SODIUM / TOTAL BILIRUBIN / TOTAL PROTEIN / URIC ACID: tissue Plasma
[1] = iv, 0 mg/kg, 72 h, dose level Control, time 3 day, vehicle 100 % SALINE
[2] = iv, 0 mg/kg, 120 h, dose level Control, time 5 day, vehicle 100 % SALINE
[3] = po, 0 mg/kg, 72 h, route oral GAVAGE, dose level Control, time 3 day, vehicle 100 % WATER
[4] = po, 0 mg/kg, 120 h, route oral GAVAGE, dose level Control, time 5 day, vehicle 100 % WATER
[5] = po, 24 mg/kg, 72 h, route oral GAVAGE, dose level Low, time 3 day, vehicle 100 % WATER
[6] = po, 24 mg/kg, 120 h, route oral GAVAGE, dose level Low, time 5 day, vehicle 100 % WATER

C[N+](C)(C)CCOC(=O)CCC(=O)OCC[N+](C)(C)C.[Cl-].[Cl-] [SUCCINYLCHOLINE CHLORIDE]
ABSOLUTE BASOPHIL [1]: 0 CELLS/uL | ABSOLUTE EOSINOPHIL [1]: 193.5 CELLS/uL | ABSOLUTE LYMPHOCYTE [1]: 15717.5 CELLS/uL | ABSOLUTE MONOCYTE [1]: 389.33 CELLS/uL | ABSOLUTE SEGMENTED NEUTROPHIL [1]: 1883 CELLS/uL | BASOPHIL [1]: 0% | EOSINOPHIL [1]: 1.17% | ERYTHROCYTE COUNT [1]: 5.68 x10E6/uL | HEMATOCRIT [1]: 35.83% | HEMOGLOBIN [1]: 13.48 G/DL | LEUKOCYTE COUNT [1]: 18.18 x10E3/uL | LYMPHOCYTE [1]: 86.67% | MEAN CORPUSCULAR HEMOGLOBIN [1]: 23.8 pg | MEAN CORPUSCULAR HEMOGLOBIN CONCENTRATION [1]: 37.68 G/DL | MEAN CORPUSCULAR VOLUME [1]: 63.27 fL | MONOCYTE [1]: 2.17% | NEUTROPHIL [1]: 10% | NUCLEATED RED BLOOD CELLS [1]: 0 /100WBC | PLATELET COUNT [1]: 1186.33 x10E3/uL | ALANINE AMINOTRANSFERASE [1]: 68.5 u/L | ALBUMIN [1]: 4.37 G/DL | ALKALINE PHOSPHATASE [1]: 396.33 u/L | ASPARTATE AMINOTRANSFERASE [1]: 92.5 u/L | BLOOD UREA NITROGEN [1]: 18 mg/dL | CARBON DIOXIDE [1]: 24.33 mmol/L | CHLORIDE [1]: 102.4 MEQ/L | CHOLESTEROL [1]: 67.17 mg/dL | CREATINE PHOSPHOKINASE [1]: 378.67 u/L | CREATININE [1]: 0.19 mg/dL | GLUCOSE [1]: 178.33 mg/dL | LACTATE DEHYDROGENASE [1]: 245.17 u/L | LIPASE [1]: 9.2 u/L | PHOSPHORUS [1]: 12.37 mg/dL | POTASSIUM [1]: 6.48 MEQ/L | SODIUM [1]: 143.28 MEQ/L | TOTAL BILIRUBIN [1]: 0.23 mg/dL | TOTAL PROTEIN [1]: 5.65 G/DL | URIC ACID [1]: 1.6 mg/dL | ABSOLUTE BASOPHIL [2]: 0 CELLS/uL | ABSOLUTE EOSINOPHIL [2]: 27.5 CELLS/uL | ABSOLUTE LYMPHOCYTE [2]: 13593.17 CELLS/uL | ABSOLUTE MONOCYTE [2]: 576 CELLS/uL | ABSOLUTE SEGMENTED NEUTROPHIL [2]: 1836.67 CELLS/uL | BASOPHIL [2]: 0% | EOSINOPHIL [2]: 0.17% | ERYTHROCYTE COUNT [2]: 5.99 x10E6/uL | HEMATOCRIT [2]: 37.42% | HEMOGLOBIN [2]: 13.78 G/DL | LEUKOCYTE COUNT [2]: 16.03 x10E3/uL | LYMPHOCYTE [2]: 85.17% | MEAN CORPUSCULAR HEMOGLOBIN [2]: 23.08 pg | MEAN CORPUSCULAR HEMOGLOBIN CONCENTRATION [2]: 36.83 G/DL | MEAN CORPUSCULAR VOLUME [2]: 62.6 fL | MONOCYTE [2]: 3.5% | NEUTROPHIL [2]: 11.17% | NUCLEATED RED BLOOD CELLS [2]: 0 /100WBC | PLATELET COUNT [2]: 1352.5 x10E3/uL | ALANINE AMINOTRANSFERASE [2]: 49.83 u/L | ALBUMIN [2]: 4.25 G/DL | ALKALINE PHOSPHATASE [2]: 331.33 u/L | ASPARTATE AMINOTRANSFERASE [2]: 86.17 u/L | BLOOD UREA NITROGEN [2]: 19.5 mg/dL | CARBON DIOXIDE [2]: 26.67 mmol/L | CHLORIDE [2]: 103 MEQ/L | CHOLESTEROL [2]: 67.5 mg/dL | CREATINE PHOSPHOKINASE [2]: 346.17 u/L | CREATININE [2]: 0.22 mg/dL | GLUCOSE [2]: 170.67 mg/dL | LACTATE DEHYDROGENASE [2]: 405.5 u/L | LIPASE [2]: 8.83 u/L | PHOSPHORUS [2]: 11.3 mg/dL | POTASSIUM [2]: 6.06 MEQ/L | SODIUM [2]: 143.4 MEQ/L | TOTAL BILIRUBIN [2]: 0.17 mg/dL | TOTAL PROTEIN [2]: 6.22 G/DL | URIC ACID [2]: 1.63 mg/dL

COLISTIN
BASOPHIL [3]: 0% | EOSINOPHIL [3]: 0.5% | ERYTHROCYTE COUNT [3]: 5.8 x10E6/uL | HEMATOCRIT [3]: 35.07% | LEUKOCYTE COUNT [3]: 13.7 x10E3/uL | MEAN CORPUSCULAR HEMOGLOBIN [3]: 24.38 pg | MEAN CORPUSCULAR HEMOGLOBIN CONCENTRATION [3]: 40.28 G/DL | MONOCYTE [3]: 2.67% | NEUTROPHIL [3]: 14.5% | PLATELET COUNT [3]: 911.5 x10E3/uL | ALANINE AMINOTRANSFERASE [3]: 36.83 u/L | ALKALINE PHOSPHATASE [3]: 399.83 u/L | ASPARTATE AMINOTRANSFERASE [3]: 66 u/L | BLOOD UREA NITROGEN [3]: 14.67 mg/dL | CHOLESTEROL [3]: 66.33 mg/dL | CREATINE PHOSPHOKINASE [3]: 139.5 u/L | CREATININE [3]: 0.92 mg/dL | GLUCOSE [3]: 175 mg/dL | PHOSPHORUS [3]: 11.42 mg/dL | TOTAL BILIRUBIN [3]: 1.13 mg/dL | TOTAL PROTEIN [3]: 6.87 G/DL | BASOPHIL [4]: 0% | EOSINOPHIL [4]: 0.2% | ERYTHROCYTE COUNT [4]: 6.02 x10E6/uL | LEUKOCYTE COUNT [4]: 12.34 x10E3/uL | LYMPHOCYTE [4]: 83% | MEAN CORPUSCULAR HEMOGLOBIN [4]: 23.92 pg | MEAN CORPUSCULAR VOLUME [4]: 60.66 fL | MONOCYTE [4]: 3% | NEUTROPHIL [4]: 13.8% | PLATELET COUNT [4]: 1190.6 x10E3/uL | ALANINE AMINOTRANSFERASE [4]: 43 u/L | ALKALINE PHOSPHATASE [4]: 393 u/L | ASPARTATE AMINOTRANSFERASE [4]: 62.33 u/L | CHOLESTEROL [4]: 65.5 mg/dL | CREATINE PHOSPHOKINASE [4]: 130.67 u/L | CREATININE [4]: 0.58 mg/dL | GLUCOSE [4]: 180.67 mg/dL | PHOSPHORUS [4]: 11.28 mg/dL | POTASSIUM [4]: 7.05 MEQ/L | TOTAL BILIRUBIN [4]: 0.72 mg/dL | TOTAL PROTEIN [4]: 6.83 G/DL | BASOPHIL [5]: 0% | EOSINOPHIL [5]: 0% | ERYTHROCYTE COUNT [5]: 5.85 x10E6/uL | LEUKOCYTE COUNT [5]: 13.3 x10E3/uL | LYMPHOCYTE [5]: 81.67% | MEAN CORPUSCULAR HEMOGLOBIN [5]: 24.6 pg | MEAN CORPUSCULAR HEMOGLOBIN CONCENTRATION [5]: 40.7 G/DL | MEAN CORPUSCULAR VOLUME [5]: 60.33 fL | MONOCYTE [5]: 2.67% | NEUTROPHIL [5]: 15.67% | PLATELET COUNT [5]: 839 x10E3/uL | ALANINE AMINOTRANSFERASE [5]: 41.67 u/L | ALBUMIN [5]: 3.7 G/DL | ALKALINE PHOSPHATASE [5]: 316 u/L | ASPARTATE AMINOTRANSFERASE [5]: 67 u/L | BLOOD UREA NITROGEN [5]: 14.33 mg/dL | CREATININE [5]: 0.77 mg/dL | GLUCOSE [5]: 176.33 mg/dL | PHOSPHORUS [5]: 11.3 mg/dL | POTASSIUM [5]: 6.83 MEQ/L | SODIUM [5]: 150 MEQ/L | TOTAL BILIRUBIN [5]: 0.87 mg/dL | TOTAL PROTEIN [5]: 6.77 G/DL | BASOPHIL [6]: 0% | EOSINOPHIL [6]: 0.33% | ERYTHROCYTE COUNT [6]: 6.34 x10E6/uL | HEMATOCRIT [6]: 37.4% | HEMOGLOBIN [6]: 14.6 G/DL | LEUKOCYTE COUNT [6]: 11.93 x10E3/uL | LYMPHOCYTE [6]: 83% | MEAN CORPUSCULAR HEMOGLOBIN [6]: 23 pg | MEAN CORPUSCULAR HEMOGLOBIN CONCENTRATION [6]: 39.03 G/DL | MEAN CORPUSCULAR VOLUME [6]: 58.97 fL | NEUTROPHIL [6]: 14.33% | PLATELET COUNT [6]: 1027.67 x10E3/uL | ALANINE AMINOTRANSFERASE [6]: 42.67 u/L | ALKALINE PHOSPHATASE [6]: 411.33 u/L | ASPARTATE AMINOTRANSFERASE [6]: 68.33 u/L | BLOOD UREA NITROGEN [6]: 15.67 mg/dL | CHOLESTEROL [6]: 64.33 mg/dL | CREATINE PHOSPHOKINASE [6]: 121.67 u/L | CREATININE [6]: 0.63 mg/dL | PHOSPHORUS [6]: 10.87 mg/dL | POTASSIUM [6]: 6.6 MEQ/L | SODIUM [6]: 149.67 MEQ/L | TOTAL BILIRUBIN [6]: 0.73 mg/dL | TOTAL PROTEIN [6]: 6.7 G/DL
